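The compound was tested at five concentrations on cells cultured in 96-well plates, with a 48-hour exposure period. GI50 is the concentration that inhibits growth by half.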 Active and inactive are the calls of the source. Cut-off read from the data, not from the text of the source: active = GI50 up to about 1.1 µM and inactive = higher.
How the values were obtained:
Experiment in all cases: DTP human tumour cell line panel, 48 h
COLO 205 = system: COLO 205
UO-31 = system: UO-31
OVCAR-4 = system: OVCAR-4
NCI-H522 = system: NCI-H522
NCI/ADR-RES = system: NCI/ADR-RES
MDA-MB-435 = system: MDA-MB-435
IGROV-1 = system: IGROV-1
CCRF-CEM = system: CCRF-CEM
Malme-3M = system: Malme-3M
OVCAR-3 = system: OVCAR-3
T47D = system: T47D
SF-539 = system: SF-539
ACHN = system: ACHN
U-251 = system: U-251
RPMI-8226 = system: RPMI-8226
Hs-578T = system: Hs-578T
SNB-75 = system: SNB-75
NCI-H460 = system: NCI-H460
LOX IMVI = system: LOX IMVI
MDA-N = system: MDA-N
SR = system: SR
NCI-H23 = system: NCI-H23
SNB-19 = system: SNB-19
HOP-92 = system: HOP-92
HCT-116 = system: HCT-116
786-0 = system: 786-0
SK-MEL-28 = system: SK-MEL-28
CAKI-1 = system: CAKI-1
HCC 2998 = system: HCC 2998
MCF7 = system: MCF7
UACC-257 = system: UACC-257
SK-OV-3 = system: SK-OV-3
SW-620 = system: SW-620
SF-295 = system: SF-295
HL-60 = system: HL-60
A498 = system: A498
EKVX = system: EKVX
OVCAR-8 = system: OVCAR-8
OVCAR-5 = system: OVCAR-5
DU-145 = system: DU-145
HT-29 = system: HT-29
SK-MEL-5 = system: SK-MEL-5
UACC-62 = system: UACC-62
KM12 = system: KM12
TK-10 = system: TK-10
MDA-MB-231 = system: MDA-MB-231
NCI-H226 = system: NCI-H226
HOP-62 = system: HOP-62
SN12C = system: SN12C
HCT-15 = system: HCT-15
M14 = system: M14
MOLT-4 = system: MOLT-4
SF-268 = system: SF-268
BT-549 = system: BT-549

Q: What does the source list for CC(=O)NNc1nc(C)c(C(=O)/C=C/C=C/c2ccccc2)s1?
A: GI50 (COLO 205): > 100 µM (inactive); GI50 (UO-31): > 100 µM (inactive); GI50 (OVCAR-4): > 100 µM (inactive); GI50 (NCI-H522): 61.9 µM (inactive); GI50 (NCI/ADR-RES): 70.6 µM (inactive); GI50 (MDA-MB-435): > 100 µM (inactive); GI50 (IGROV-1): 33.7 µM (inactive); GI50 (CCRF-CEM): 61.2 µM (inactive); GI50 (Malme-3M): > 100 µM (inactive); GI50 (OVCAR-3): 52.2 µM (inactive); GI50 (T47D): 33.2 µM (inactive); GI50 (SF-539): > 100 µM (inactive); GI50 (ACHN): > 100 µM (inactive); GI50 (U-251): 71.9 µM (inactive); GI50 (RPMI-8226): 76 µM (inactive); GI50 (Hs-578T): > 100 µM (inactive); GI50 (SNB-75): > 100 µM (inactive); GI50 (NCI-H460): > 100 µM (inactive); GI50 (LOX IMVI): > 100 µM (inactive); GI50 (MDA-N): > 100 µM (inactive); GI50 (SR): 80.9 µM (inactive); GI50 (NCI-H23): > 100 µM (inactive); GI50 (SNB-19): > 100 µM (inactive); GI50 (HOP-92): > 100 µM (inactive); GI50 (HCT-116): 57.1 µM (inactive); GI50 (786-0): 62.7 µM (inactive); GI50 (SK-MEL-28): > 100 µM (inactive); GI50 (CAKI-1): > 100 µM (inactive); GI50 (HCC 2998): > 100 µM (inactive); GI50 (MCF7): > 100 µM (inactive); GI50 (UACC-257): 66.7 µM (inactive); GI50 (SK-OV-3): > 100 µM (inactive); GI50 (SW-620): > 100 µM (inactive); GI50 (SF-295): > 100 µM (inactive); GI50 (HL-60): 44.4 µM (inactive); GI50 (A498): > 100 µM (inactive); GI50 (EKVX): 24.2 µM (inactive); GI50 (OVCAR-8): > 100 µM (inactive); GI50 (OVCAR-5): > 100 µM (inactive); GI50 (DU-145): 54.5 µM (inactive); GI50 (HT-29): > 100 µM (inactive); GI50 (SK-MEL-5): > 100 µM (inactive); GI50 (UACC-62): > 100 µM (inactive); GI50 (KM12): 29.6 µM (inactive); GI50 (TK-10): > 100 µM (inactive); GI50 (MDA-MB-231): 65.5 µM (inactive); GI50 (NCI-H226): > 100 µM (inactive); GI50 (HOP-62): 80.4 µM (inactive); GI50 (SN12C): > 100 µM (inactive); GI50 (HCT-15): > 100 µM; GI50 (M14): 48.9 µM (inactive); GI50 (MOLT-4): 56.1 µM (inactive); GI50 (SF-268): > 100 µM (inactive); GI50 (BT-549): > 100 µM (inactive)

From ChEMBL document CHEMBL1201862, “PubChem BioAssay data set” (2004)
